Like-named read-outs stand apart in the source and are kept apart here.
Molecular target: mutant BRAF V600E (Homo sapiens, UniProt P15056, V600E)
Assay: BRAF V600E HiBiT Degradation Assay in A375.10 cells
Settings: for HiBIT-Degradation A375.10 BRAF 24 hours IP nM / DC50 / HiBIT-Degradation A375.10 BRAF 2 hours IP nM: A375.10 cells; for HiBIT-Degradation A375.10 BRAF 24 hours IP nM / HiBIT-Degradation A375.10 BRAF 2 hours IP nM: inflection point of the dose-response curve
[1] = read-out: HiBIT-Degradation A375.10 BRAF 24 hours DC50 nM, 24 hours
[2] = read-out: HiBIT-Degradation A375.10 BRAF 24 hours Emax
[3] = read-out: HIBIT-Degradation A375.10 BRAF 2 hours DC50 nM, 2 hours
[4] = read-out: HiBIT-Degradation A375.10 BRAF 2 hours Emax

Chain of mutant BRAF V600E (P15056 whole entry V600E): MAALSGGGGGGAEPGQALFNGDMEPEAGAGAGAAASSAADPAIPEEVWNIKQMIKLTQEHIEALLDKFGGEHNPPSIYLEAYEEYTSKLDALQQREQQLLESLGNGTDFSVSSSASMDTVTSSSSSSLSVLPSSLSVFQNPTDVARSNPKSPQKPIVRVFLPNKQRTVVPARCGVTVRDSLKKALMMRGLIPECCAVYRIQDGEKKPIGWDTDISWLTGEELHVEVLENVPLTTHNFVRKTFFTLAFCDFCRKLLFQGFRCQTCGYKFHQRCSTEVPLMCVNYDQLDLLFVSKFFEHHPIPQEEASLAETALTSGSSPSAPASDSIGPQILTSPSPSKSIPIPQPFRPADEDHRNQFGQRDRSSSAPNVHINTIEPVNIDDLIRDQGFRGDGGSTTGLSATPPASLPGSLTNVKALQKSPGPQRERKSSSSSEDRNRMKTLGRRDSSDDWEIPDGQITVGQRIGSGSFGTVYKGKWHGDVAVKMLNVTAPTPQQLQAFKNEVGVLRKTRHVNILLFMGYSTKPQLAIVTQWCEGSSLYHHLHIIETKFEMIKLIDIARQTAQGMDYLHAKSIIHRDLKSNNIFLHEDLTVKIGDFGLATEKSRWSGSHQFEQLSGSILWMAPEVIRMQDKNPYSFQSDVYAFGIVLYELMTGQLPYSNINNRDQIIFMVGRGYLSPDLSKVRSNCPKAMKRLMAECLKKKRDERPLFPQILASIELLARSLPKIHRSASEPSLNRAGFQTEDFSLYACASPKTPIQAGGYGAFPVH
Method: Compounds of this invention were tested for degradation of mutant BRAF V600E using the HiBiT assay, a luminescence-based assay for quantification of cellular protein levels using the Nano-Glo@HiBiT Lytic Detection System (Catalog No. N3050, Promega, Madison, WI USA). This assay utilizes the HiBiT tag on a protein of interest, which creates a luminescent signal in the presence of a complementing peptide and its substrate, the quantification of which 10 is proportional to the amount of HiBiT-tagged protein in the cell.
A375 cells were engineered to express HiBiT tagged BRAF V600E by CRISPR knock-in of the HiBiT tag to the endogenous BRAF V600E locus, followed by selection of a clonal population containing 15 the appropriate knock-in (referred to here as cell line A375.10). […] Cell culture flasks and 384-well microplates 20 were acquired from VWR (Radnor, PA, USA).
Plates were then spun briefly, and cells were incubated with compound at 37° C. for 2 hoursor 24 hours.
Following the appropriate treatment time, Nano-Glo® HiBiT Lytic Assay reagents were added to the cells per the manufacturer's instructions by adding 30ul of reagent per well, and 10 the luminescence signal was acquired by plate reader. Cells treated with DMSO only (no test compound treatment) were used as the negative control (N). Media only (no cells added) with Nano-Glo reagent addition was used as the background or positive control (P). The percent response of compound treated samples were calculated by subtracting out the background signal (P) and normalizing to the DMSO control (N) as follows. % Response=100 x (Treated Signal - Average (P))/(Average (N) - Average (P)).
Data were analyzed with a 4-parameter logistic fit to generate sigmoidal dose-response curves. […] The Emax, or maximum effect of each compound, represents the amount of residual protein remaining in the cell following compound treatment.
The experiment was conducted at least once for each compound. If the experiment was conducted multiple times, the data shown in the table is the average of the two or more experiments.

Structure (SMILES)	HiBIT-Degradation A375.10 BRAF 24 hours IP nM (24 hours)	DC50 [1] [nM]	Emax [2] [%]	HiBIT-Degradation A375.10 BRAF 2 hours IP nM (2 hours)	DC50 [3] [nM]	Emax [4] [%]
CCN(C)S(=O)(=O)Nc1ccc(F)c(Oc2ccc3ncn([C@@H]4COC5(CCN(C(=O)CN6CCC(c7ccc(OC8CCC(=O)NC8=O)cc7S(=O)(=O)F)CC6)CC5)C4)c(=O)c3c2)c1C#N (some centres unmarked) [drawing 1221]	*** (<= 1 μM is ***)	< 1000	< 60			
CCN(C)S(=O)(=O)Nc1ccc(F)c(Oc2ccc3ncn([C@@H]4COC5(CCN(C(=O)CN6CCN(c7ccc(N8CCC(=O)NC8=O)cc7OS(=O)(=O)F)CC6)CC5)C4)c(=O)c3c2)c1C#N [drawing 1195]				* (>=10 μM is *)	> 10000	60 to 95
CCN(C)S(=O)(=O)Nc1ccc(F)c(Oc2ccc3ncn([C@@H]4COC5(CCN(C(=O)CN6CCC(c7ccc(C8CCC(=O)NC8=O)cc7OS(=O)(=O)F)CC6)CC5)C4)c(=O)c3c2)c1C#N (some centres unmarked) [drawing 1189]				*** (<= 1 μM is)	1000 to 10000	60 to 95
CCN(C)S(=O)(=O)Nc1ccc(F)c(Oc2ccc3ncn([C@H]4COC5(CCN(C(=O)CN6CCC(c7ccc(OC8CCC(=O)NC8=O)cc7S(=O)(=O)F)CC6)CC5)C4)c(=O)c3c2)c1C#N (some centres unmarked) [drawing 1200]				*** (<= 1 μM is)	1000 to 10000	60 to 95
CCN(C)S(=O)(=O)Nc1ccc(F)c(Oc2ccc3ncn([C@H]4COC5(CCN(C(=O)CN6CCC(c7ccc(N8CCC(=O)NC8=O)cc7OS(=O)(=O)F)CC6)CC5)C4)c(=O)c3c2)c1C#N [drawing 1218]	*** (<= 1 μM is ***)	> 10000	60 to 95			
CCN(C)S(=O)(=O)Nc1ccc(F)c(Oc2ccc3ncn([C@@H]4COC5(CCN(C(=O)CN6CCC(c7ccc(OC8CCC(=O)NC8=O)cc7S(=O)(=O)F)CC6)CC5)C4)c(=O)c3c2)c1C#N (some centres unmarked) [drawing 1198]				*** (<= 1 μM is)	1000 to 10000	60 to 95
CCN(C)S(=O)(=O)Nc1ccc(F)c(Oc2ccc3ncn([C@H]4COC5(CCN(C(=O)CN6CCC(c7ccc(OC8CCC(=O)NC8=O)cc7OS(C)(=O)=O)CC6)CC5)C4)c(=O)c3c2)c1C#N (some centres unmarked) [drawing 1204]				*** (<= 1 μM is)	1000 to 10000	< 60
CCN(C)S(=O)(=O)Nc1ccc(F)c(Oc2ccc3ncn([C@H]4COC5(CCN(C(=O)CN6CCC(c7ccc(N8CCC(=O)NC8=O)cc7OS(=O)(=O)F)CC6)CC5)C4)c(=O)c3c2)c1C#N [drawing 1193]				* (>=10 μM is *)	> 10000	> 95
CCN(C)S(=O)(=O)Nc1ccc(F)c(Oc2ccc3ncn([C@@H]4COC5(CCN(C(=O)CN6CCC(c7ccc(NC8CCC(=O)NC8=O)cc7OS(C)(=O)=O)CC6)CC5)C4)c(=O)c3c2)c1C#N (some centres unmarked) [drawing 1208]				** (<10 μM and >1 μM is **)	> 10000	60 to 95
CCN(C)S(=O)(=O)Nc1ccc(F)c(Oc2ccc3ncn([C@@H]4COC5(CCN(C(=O)CN6CCC(c7ccc(N8CCC(=O)NC8=O)cc7OS(C)(=O)=O)CC6)CC5)C4)c(=O)c3c2)c1C#N [drawing 1203]				*** (<= 1 μM is)	> 10000	< 60
CCN(C)S(=O)(=O)Nc1ccc(F)c(Oc2ccc3ncn([C@H]4COC5(CCN(C(=O)CN6CCC(c7ccc(OC8CCC(=O)NC8=O)cc7S(=O)(=O)F)CC6)CC5)C4)c(=O)c3c2)c1C#N (some centres unmarked) [drawing 1225]	** (<10 μM and >1 μM is **)	> 10000	60 to 95			
CCN(C)S(=O)(=O)Nc1ccc(F)c(Oc2ccc3ncn([C@@H]4COC5(CCN(C(=O)CN6CCC(c7ccc(OC8CCC(=O)NC8=O)cc7OS(=O)(=O)F)CC6)CC5)C4)c(=O)c3c2)c1C#N (some centres unmarked) [drawing 1228]	** (<10 μM and >1 μM is **)	1000 to 10000	< 60			
CCN(C)S(=O)(=O)Nc1ccc(F)c(Oc2ccc3ncn([C@H]4COC5(CCN(C(=O)CN6CCC(c7ccc(C8CCC(=O)NC8=O)cc7OS(=O)(=O)F)CC6)CC5)C4)c(=O)c3c2)c1C#N (some centres unmarked) [drawing 1216]	*** (<= 1 μM is ***)	< 1000				
CCN(C)S(=O)(=O)Nc1ccc(F)c(Oc2ccc3ncn([C@@H]4COC5(CCN(C(=O)CN6CCC(c7ccc(C8CCC(=O)NC8=O)cc7OS(=O)(=O)F)CC6)CC5)C4)c(=O)c3c2)c1C#N (some centres unmarked) [drawing 1210]	*** (<= 1 μM is ***)	< 1000	< 60			
CCN(C)S(=O)(=O)Nc1ccc(F)c(Oc2ccc3ncn([C@H]4COC5(CCN(C(=O)CN6CCC(c7ccc(OC8CCC(=O)NC8=O)cc7OS(=O)(=O)F)CC6)CC5)C4)c(=O)c3c2)c1C#N (some centres unmarked) [drawing 1214]	*** (<= 1 μM is ***)	< 1000	< 60			
CCN(C)S(=O)(=O)Nc1ccc(F)c(Oc2ccc3ncn([C@@H]4COC5(CCN(C(=O)CN6CCC(c7ccc(C8CCC(=O)NC8=O)cc7OS(C)(=O)=O)CC6)CC5)C4)c(=O)c3c2)c1C#N (some centres unmarked) [drawing 1207]				** (<10 μM and >1 μM is **)	> 10000	< 60
CCN(C)S(=O)(=O)Nc1ccc(F)c(Oc2ccc3ncn([C@H]4COC5(CCN(C(=O)CN6CCC(c7ccc(NC8CCC(=O)NC8=O)cc7OS(C)(=O)=O)CC6)CC5)C4)c(=O)c3c2)c1C#N (some centres unmarked) [drawing 1202]				*** (<= 1 μM is)	1000 to 10000	< 60
CCN(C)S(=O)(=O)Nc1ccc(F)c(Oc2ccc3ncn([C@H]4COC5(CCN(C(=O)CN6CCC(c7ccc(C8CCC(=O)NC8=O)cc7OS(=O)(=O)F)CC6)CC5)C4)c(=O)c3c2)c1C#N (some centres unmarked) [drawing 1211]	*** (<= 1 μM is ***)	< 1000	< 60			
CCN(C)S(=O)(=O)Nc1ccc(F)c(Oc2ccc3ncn([C@@H]4COC5(CCN(C(=O)CN6CCC(c7ccc(NC8CCC(=O)NC8=O)cc7S(=O)(=O)F)CC6)CC5)C4)c(=O)c3c2)c1C#N (some centres unmarked) [drawing 1209]				* (>=10 μM is *)	> 10000	60 to 95
CCN(C)S(=O)(=O)Nc1ccc(F)c(Oc2ccc3ncn([C@H]4COC5(CCN(C(=O)CN6CCC(c7ccc(NC8CCC(=O)NC8=O)cc7S(=O)(=O)F)CC6)CC5)C4)c(=O)c3c2)c1C#N (some centres unmarked) [drawing 1215]	*** (<= 1 μM is ***)	< 1000	< 60			
CCN(C)S(=O)(=O)Nc1ccc(F)c(Oc2ccc3ncn([C@@H]4COC5(CCN(C(=O)CN6CCN(c7ccc(N8CCC(=O)NC8=O)cc7OS(=O)(=O)F)CC6)CC5)C4)c(=O)c3c2)c1C#N [drawing 1229]	** (<10 μM and >1 μM is **)	1000 to 10000	< 60			
CCN(C)S(=O)(=O)Nc1ccc(F)c(Oc2ccc3ncn([C@H]4COC5(CCN(C(=O)CN6CCC(c7ccc(C8CCC(=O)NC8=O)cc7OS(=O)(=O)F)CC6)CC5)C4)c(=O)c3c2)c1C#N (some centres unmarked) [drawing 1190]				*** (<= 1 μM is)	< 1000	< 60
CCN(C)S(=O)(=O)Nc1ccc(F)c(Oc2ccc3ncn([C@H]4COC5(CCN(C(=O)CN6CCN(c7ccc(N8CCC(=O)NC8=O)cc7OS(=O)(=O)F)CC6)CC5)C4)c(=O)c3c2)c1C#N [drawing 1213]	*** (<= 1 μM is ***)	1000 to 10000	< 60			
CCN(C)S(=O)(=O)Nc1ccc(F)c(Oc2ccc3ncn([C@@H]4COC5(CCN(C(=O)CN6CCC(c7ccc(NC8CCC(=O)NC8=O)cc7OS(C)(=O)=O)CC6)CC5)C4)c(=O)c3c2)c1C#N (some centres unmarked) [drawing 1226]	** (<10 μM and >1 μM is **)	1000 to 10000	< 60			
CCN(C)S(=O)(=O)Nc1ccc(F)c(Oc2ccc3ncn([C@@H]4COC5(CCN(C(=O)CN6CCC(c7ccc(NC8CCC(=O)NC8=O)cc7S(=O)(=O)F)CC6)CC5)C4)c(=O)c3c2)c1C#N (some centres unmarked) [drawing 1222]	*** (<= 1 μM is ***)	1000 to 10000	< 60			
CCN(C)S(=O)(=O)Nc1ccc(F)c(Oc2ccc3ncn([C@H]4COC5(CCN(C(=O)CN6CCN(c7ccc(N8CCC(=O)NC8=O)cc7OS(=O)(=O)F)CC6)CC5)C4)c(=O)c3c2)c1C#N [drawing 1194]				* (>=10 μM is *)	> 10000	> 95
CCN(C)S(=O)(=O)Nc1ccc(F)c(Oc2ccc3ncn([C@H]4COC5(CCN(C(=O)CN6CCC(c7ccc(N8CCC(=O)NC8=O)cc7OS(C)(=O)=O)CC6)CC5)C4)c(=O)c3c2)c1C#N [drawing 1205]				** (<10 μM and >1 μM is **)	1000 to 10000	< 60

From patent US20260274856A1, “COVALENT CEREBLON LIGANDS” (C4 THERAPEUTICS, INC., priority 2023, published 2026)
